Where “and” joins values, the source holds several entries; their conditions need not be identical. Equal values may be shown once. Where a name gives a salt, the structure may show the parent alone.
Columns and labels:
[1] = tested on: HT-29 colon carcinoma cells; experiment: Inhibition of HT-29 tumor cell proliferation (MTT cytotoxicity, 72 h); format: cell-based; conditions: HT-29, 72 h
Description: Cytotoxicity may be measured using standard methodology for adherent cell lines such as the microculture tetrazolium assay (MTT). Details of this assay have been published Cancer Research 48:589-601, 1988). Exponentially growing cultures of tumor cells such as the HT-29 colon carcinoma or LX-1 lung tumor are used to make microtiter plate cultures. Cells are seeded at 5000-20,000 cells per well in 96-well plates (in 150 μl of media), and grown overnight at 37° C. Test compounds are added, in dilutions varying from 10^-4 M to 10^-10 M. The cells are then incubated for 48-72 hours. To determine the number of viable cells in each well, the MTT dye is added (50 μl of 3 mg/ml solution of 3-(4,5-dimethylthiazol-2-yl)-2,5-diphenyltetrazolium bromide in saline). This mixture is incubated at 37° C. for 5 hours, and then 50 μl of 25% strength SDS (pH 2) is added to each well. After overnight incubation, the absorbance of each well at 550 nm is read using an ELISA reader. The values for the mean +/- SD of data from quadruplicate wells are calculated, using the formula % T/C (% cells treated/control). [formula]
The concentration of test compound which gives a T/C of 50% growth inhibition is designated as the IC50.
Inhibition of HT-29 tumor cell proliferation^a.
^a Dihydrodibenzoquinolinedione cytotoxicity studies were performed a
follows: HT29 cells were seeded (5000) into each well of 96 well dishes.
After plating overmight a titration of dihydrodibenzoquinolinedione was
added giving a final volume of 200 ul. Following incubation for 72 h 50 u
of MTT (3 mg/ml) in PBS was added to each well and incubated for 5 hours
at 37° C. The reaction was stopped by the addition of 50 ul of 25%
SDS, pH 2. After an overnight incubation at 37° C. the absorbance,
due to metabolized MTT, was read with a plate reader at 550 nm.
Cytotoxicity was calculate as the well absorbance expressed as a
percentage on nondrug treated control. All estimates were made in
^b 10^-2 M stock solution made in 10% acetic acid then diluted in
^c 10^-2 M stock solution made in 10% DMSO then diluted in media.
^d 10^-4 M stock solution made in 10% acetic acid/10% DMSO then
^e 10^-2 M stock suspention made in DMSO then diluted in media to […]

M5076 murine sarcoma = experiment: In vivo anti-tumor activity on M5076 murine sarcoma (survival); design: species or system C57BL/6 mice; conditions: for % T/C: treated MST/control MST; for MST: treated on days 1.5 and 9
Description: Compounds according to the invention may be further tested in any of the various preclinical assays for in vivo activity which are indicative of clinical utility. Such assays may be conducted with human tumors implanted in nude mice as xenografts or mouse tumors implanted in conventional mice in the strain of origin (syngeneic), as is well known in this field. Test compounds are evaluated for their antitumor efficacy following administration to the tumor-bearing mice.
More specifically, human tumors which have been grown in athymic nude mice or mouse tumors grown in their synergeneic host are transplanted into new recipient animals, using either tumor fragments which are about 50 mg in size or 1×10^6 cells harvested from ascites fluid. The day of transplantation is designated as day 0 and the host mice are subsequently injected intravenously or intraperitoneally with the test compounds, in group of 5 to 10 mice per dose level. The compounds are administered either as a single dose or on an intermittent or frequent dosing schedule at doses from 0.1 to 100 mg/kg body weight. Tumor size of solid tumors are measured by vernier calipers in two directions and the volume estimated by the formula: […]
Life span studies following i.p. administration of tumor cells are evaluated on the base of median survival time (MST). The MST of drug treated (T) mice are compared to the MST of control (C) mice and expressed as T/C percent. Compounds producing a T/C percent of >100% indicates some reduction in tumor burden. Values of 125 to 150% may be considered to reflect moderate activity, values of 150 to 200% good to excellent activity, and >200% outstanding activity.
In vivo anti-tumor activity of a Dihydrodibenzoquinolinedione analog on M5076 murine sarcoma^a.
^a C57BL/6 mice (6 per group) were inoculated with 10^6 M5076
cells on day 0. Mice were treated on days 1.5 and 9 with the
dimethanesulfonate salt of example 1 at the dose levels shown. Mice died
as a consequence of tumor burden with median survival times (MST) as
shown. In both studies meaningful antitumor activity was produce as
indicated by a treated MST/Control MST percentage (% T/C) being

[2] = 10^-2 M stock solution made in 10% DMSO then diluted in media
[3] = Homo sapiens, 10^-2 M stock solution made in 10% DMSO then diluted in media
[4] = 10^-2 M stock solution made in 10% acetic acid then diluted in media
[5] = Homo sapiens, 10^-2 M stock solution made in 10% acetic acid then diluted in media
[6] = 10^-2 M stock suspension made in DMSO then diluted in media to form a solution
[7] = Homo sapiens, 10^-4 M stock solution made in 10% acetic acid/10% DMSO then diluted in media

## CN(CCN(C)CCN1C(=O)c2cccc3cc4ccccc4c(c23)C1=O)CCN1C(=O)c2cccc3cc4ccccc4c(c23)C1=O [Example 14, N,N'-Bis[2-(1,2-dihydro-1,3-dioxo-3H-dibenz[de,h]isoquinolin-2-yl)ethyl]-N,N'-dimethyl-1,2-ethylenediamine]
[1]; [2]
  IC50: 80 nM
[1]; [3]
  IC50: 70 nM

## O=C1c2cccc3cc4ccccc4c(c23)C(=O)N1CCNCCCNCCN1C(=O)c2cccc3cc4ccccc4c(c23)C1=O [Example 1, N,N'-Bis[2-(1,2-dihydro-1,3-dioxo-3H-dibenz[de,h]isoquinoline-2-yl)ethyl]-1,3-propanediamine]
[1]; [4]
  IC50: 5 nM
[1]; [5]
  IC50: 4 nM

## O=C1c2cccc3cc4ccccc4c(c23)C(=O)N1CCNCCCNCCN1C(=O)c2cccc3cc4ccccc4c(c23)C1=O [1 2 CH3 --SO3 H salt]
M5076 murine sarcoma; Experiment 1, 1.8 mg/kg
  % T/C: 154%
M5076 murine sarcoma; Experiment 1, 1.8 mg/kg, control MST 19.5
  MST: 30
M5076 murine sarcoma; Experiment 1, 2.6 mg/kg
  % T/C: 123%
M5076 murine sarcoma; Experiment 1, 2.6 mg/kg, control MST 19.5
  MST: 24
M5076 murine sarcoma; Experiment 1, 4 mg/kg
  % T/C: toxic
M5076 murine sarcoma; Experiment 1, 4 mg/kg, control MST 19.5
  MST: toxic
M5076 murine sarcoma; Experiment 2, 1.2 mg/kg
  % T/C: 128%
M5076 murine sarcoma; Experiment 2, 1.2 mg/kg, control MST 23.5
  MST: 30
M5076 murine sarcoma; Experiment 2, 1.8 mg/kg
  % T/C: 98%
M5076 murine sarcoma; Experiment 2, 1.8 mg/kg, control MST 23.5
  MST: 23
M5076 murine sarcoma; Experiment 2, 2.7 mg/kg
  % T/C: toxic
M5076 murine sarcoma; Experiment 2, 2.7 mg/kg, control MST 23.5
  MST: toxic
M5076 murine sarcoma; both studies, reproducibly, meaningful antitumor activity
  treated MST/Control MST percentage (% T/C): greater than 125%
[1]; [2]
  IC50: 20 nM
[1]; [3]
  IC50: 10 nM

## O=C1c2cccc3cc4ccccc4c(c23)C(=O)N1CCCNCCNCCCN1C(=O)c2cccc3cc4ccccc4c(c23)C1=O [Example 10, N,N'-Bis[3-(1,2-dihydro-1,3-dioxo-3H-dibenz[de,h]isoquinolin-2-yl)propyl]-1,2-ethylenediamine]
[1]; [4]
  IC50: 90 nM
[1]; [5]
  IC50: 100 nM

## O=C1c2cccc3cc4ccccc4c(c23)C(=O)N1CCCNCCCNCCCN1C(=O)c2cccc3cc4ccccc4c(c23)C1=O [Example 11, N,N'-Bis[3-(1,2-dihydro-1,3-dioxo-3H-dibenz[de,h]isoquinolin-2-yl)propyl]-1,3-propanediamine]
[1]; [4]
  IC50: 80 nM
[1]; [5]
  IC50: 100 nM

## O=C1c2cccc3cc4ccccc4c(c23)C(=O)N1CCNCCNCCN1C(=O)c2cccc3cc4ccccc4c(c23)C1=O [Example 2, N,N'-Bis[2-(1,2-dihydro-1,3-dioxo-3H-dibenz[de,h]isoquinolin-2-yl)ethyl]-1,2-ethylenediamine]
[1]; [4]
  IC50: 8 nM
[1]; [5]
  IC50: 10 nM

## O=C1c2cccc3cc4c([N+](=O)[O-])cccc4c(c23)C(=O)N1CCNCCNCCN1C(=O)c2cccc3cc4c([N+](=O)[O-])cccc4c(c23)C1=O [Example 13, N,N'-Bis-[2-(1,2-dihydro-8-nitro-1,3-dioxo-3H-dibenz[de,h]isoquinolin-2-yl)ethyl]1,3-ethylenediamine]
[1]; [6]
  IC50: 100 nM and 90 nM

## O=C1c2cccc3cc4ccccc4c(c23)C(=O)N1CCNCCN1C(=O)c2cccc3cc4ccccc4c(c23)C1=O [Example 9, Bis[2-(1,2-dihydro-1,3-dioxo-3H-dibenz[de,h]isoquinolin-2-yl)ethyl)amine]
[1]; [7]
  IC50: 20 nM

## O=C1c2cccc3cc4ccccc4c(c23)C(=O)N1CCCNCCCCNCCCN1C(=O)c2cccc3cc4ccccc4c(c23)C1=O [Example 3, N,N'-Bis[3-(1,2-dihydro-1,3-dioxo-3H-dibenz[de,h]isoquinolin-2-yl)propyl]-1,4-butanediamine]
[1]; [5]
  IC50: 200 nM

## O=C1c2cccc3cc4c([N+](=O)[O-])cccc4c(c23)C(=O)N1CCNCCCNCCN1C(=O)c2cccc3cc4c([N+](=O)[O-])cccc4c(c23)C1=O [Example 12, N,N'-Bis[2-(1,2-dihydro-8-nitro-1,3-dioxo-3H-dibenz[de,h]isoquinolin-2-yl)ethyl]-1,3-propanediamine]
[1]; [6]
  IC50: 40 nM
[1]; Homo sapiens, 10^-2 M stock suspension made in DMSO then diluted in media to form a solution
  IC50: 30 nM

## O=C1c2cccc3cc4ccccc4c(c23)C(=O)N1CCNCCCCCNCCN1C(=O)c2cccc3cc4ccccc4c(c23)C1=O [Example 15, N,N'-Bis[2-(1,2-dihydro-1,3-dioxo-3H-dibenz[de,h]isoquinolin-2-yl)ethyl]-1,5-pentanediamine]
[1]; [3]
  IC50: 8 nM

## O=C1c2cccc3cc4ccccc4c(c23)C(=O)N1CCCNCCCN1C(=O)c2cccc3cc4ccccc4c(c23)C1=O [Example 7, Bis[3-(1,2-dihydro-1,3-dioxo-3H-dibenz[de,h]isoquinolin-2-yl)propyl]amine]
[1]; [5]
  IC50: 20 nM

## O=C1c2cccc3cc4ccccc4c(c23)C(=O)N1CCCCNCCCN1C(=O)c2cccc3cc4ccccc4c(c23)C1=O [Example 4, [3-(1,2-dihydro-1,3-dioxo-3H-dibenz[de,h]isoquinolin-2-yl)propyl][4-(1,2-dihydro-1,3-dioxo-3,4-dibenz[de,h]isoquinolin-2-yl)butyl]amine]
[1]; 10^-4 M stock solution made in 10% acetic acid/10% DMSO then diluted in media
  IC50: 50 nM
[1]; [7]
  IC50: 90 nM

— patent US5703089A, “Dihydrodibenzisoquinolinediones” (Knoll Aktiengesellschaft, priority 1996, dated 1997)
